Consider 89 compounds from a melting point compilation (Tetko et al.; mined from patent text by program, amines drawn as free bases though some values may be those of a salt).

As to `CCOc1nsc(NC(=O)Oc2ccccc2)c1C#N`, the melting point (usually the temperature, or range, at which the solid turns liquid) was 252 to 253 °C.

`CN1CCC(c2c3n(c4ccc(O)cc24)CCC3)CC1`: the melting point was more than 250 °C.

As for `CN(O)C(=O)C(=Cc1ccc2ccccc2c1)c1ccc(Cl)cc1`, the melting point was in the range of 140 to 142 °C.

As to `Cc1ccc(CON2C(C(F)(F)F)C(C(=O)Nc3ccccc3)=CN2C)c(C)c1` (centres undefined), the melting point was 123 to 125 °C.

`Nc1cc(N2CC(c3ccccc3)OC2=O)ccn1` (centres undefined): the melting point lay within 155 to 156 °C.

`CN(C)C(=O)N[C@H]1CC[C@H](CCN2CCN(c3ccc(O)c(Cl)c3Cl)CC2)CC1` yielded a melting point of 278 to 280 °C.

As to `O=C(COc1cc(Cl)c(Cl)cc1Cl)OCNC(=O)Oc1ccccc1Cl`, the melting point was 119 °C.

In turn, `COc1nc2ccccc2cc1N(C(=O)N1CCN(c2cc(C)cc(C)c2)CC1)C(C)C` displayed a melting point of 114 to 115 °C.

In turn, `CC(C)(C)c1cc(C(=O)OCCC(=O)Oc2ccc(Cl)c(N)c2)cc(C(C)(C)C)c1O` returned a melting point of 122 to 124 °C.

Consider `COc1ccc(-c2cc(=O)c3cc(OCCCCCN4CCC(O)CC4)ccc3o2)cc1`, for which the melting point lay within 138 to 139 °C.

`C#CCCCOc1c(C)cc(-c2noc(C)n2)cc1C` displayed a melting point of 41.5 to 43 °C.

In the case of `CCc1nc(-c2ccccc2)c(NC(=O)Nc2ccccc2)s1`, the melting point lay within 171 to 173 °C.

For `O=S(=O)(Cc1ccc(Br)cc1)c1nc(-c2ccncc2)ns1`, the melting point is 173 °C.

In turn, `Nc1nc2ccc(S(=O)(=O)n3c(CCCC(=O)O)cc4cc(Cl)ccc43)cc2o1` gave a melting point of 220 °C.

The compound `N#Cc1cc(Oc2ccc3c(C(=O)Nc4cccc(C(F)(F)F)c4)cccc3c2)ncn1` returned a melting point of 167 °C.

The compound `COC(=O)c1ccc(-c2ccc(-c3ccccc3)c(-c3ccc4c(c3)C(C)(C)CCC4(C)C)c2)c(O)c1` displayed a melting point of 183 to 185 °C.

As to `c1ccc(C(c2ccnc3ccccc23)n2ccnc2)cc1` (centres undefined), the melting point was determined as 143 °C.

Take `CC(CC[Si](CCC(C)[N+](=O)[O-])(c1ccccc1)c1ccccc1)[N+](=O)[O-]` (centres undefined): the melting point lay within 84 to 85 °C.

In turn, `CC(C)C(NC(=O)OCc1ccncc1)C(=O)NC(Cc1ccccc1)C(O)C(O)C(Cc1ccccc1)NC(=O)C(NC(=O)OCc1ccncc1)C(C)C` (centres undefined) returned a melting point of 190 to 193 °C.

`O=CC1(c2ccc(Cl)cc2)CC1` had a melting point of 38 to 41 °C.

`NC(=S)NN=C(COC(=O)Nc1ccccc1)c1ccccc1` displayed a melting point of 155 to 165 °C.

`O=C(Nc1ccccc1)n1nc(-c2ccccc2)cc1Sc1ccccc1` registered a melting point of 138 to 140 °C.

`COc1ccc(C(=CC(=O)N2CCOCC2)c2ccc(NC(=O)c3ccc(Cl)cc3)cc2)cc1OC` showed a melting point of 197 to 207 °C.

The compound `CN(C)CCOc1ccc2c(c1)C(c1ccccc1)CC(=O)N2` (centres undefined) gave a melting point of 133 to 135 °C.

On to `Cc1cc(C(=O)Nc2cc(Oc3ccc4nc(NC(=O)C5CC5)cn4n3)ccc2Cl)n(C)n1`, for which the melting point is 255 °C.

With `O=C1CCC(N2C(=O)c3cccc(OCc4ccc(CN5CCOCC5)cc4)c3C2=O)C(=O)N1` (centres undefined), the melting point is 205 to 207 °C.

`Cc1cc(-c2[nH]c3ccccc3c2C)cc(C)c1O` had a melting point of 143 to 144 °C.

In the case of `Cn1c(=O)cc(N)n(-c2ccc(Cl)cc2Cl)c1=O`, the melting point lay in the range of 249 to 251 °C.

`CON=Cc1cc(NC(=O)N2CCOCN2)c(Cl)cc1Cl` came in with a melting point of 205 to 208 °C.

`CC(C)c1cccc(C(C)C)c1NC(=O)CN1CCCN(CCCSc2nc3ncccc3o2)CC1` came in with a melting point of 73 to 75 °C.

`O=P(OC1=Nc2ccc(Cl)cc2C(c2ccccc2Cl)=NC1)(N1CCOCC1)N1CCOCC1`: the melting point lay in the range of 185 to 187 °C.

Turning to `CC(C)(C)c1ccccc1N1CCN(C(=O)C2CCC(=O)N2Cc2ccccc2)CC1` (centres undefined), the melting point is 164 °C.

For the compound `O=C(O)CCc1cc2cc(Cl)ccc2n1S(=O)(=O)c1ccc2c(c1)CCN2`, the melting point came to 157 °C.

In turn, `COC(=O)c1ccc2oc3c(c(=O)c2c1)CCCC3=Cc1ccccc1` had a melting point of 168 to 170 °C.

`C#CCn1cc(C#N)c(C=O)c1` displayed a melting point of 114 °C.

Take `COCCOc1ccc(/C=C/C(=O)O)c(Oc2ncc(Br)cc2C)c1`: the melting point was 157 to 158 °C.

With `CC12CCC(I)CC1=CCC1C2CCC2(C)C1CCC21OCCO1` (centres undefined), the melting point was 140 to 141 °C.

For `CCC(=O)N1CCNC1=NC#N`, the melting point was 208 to 210 °C.

The compound `CCOC(=O)c1scc2c1ccc1cn[nH]c12` registered a melting point of 124 to 125 °C.

`CCCn1c(=O)[nH]c2ccc(C(=O)c3nc(NS(C)(=O)=O)c4ccccn34)cc2c1=O` displayed a melting point of 334 °C.

`CC(C=Cc1c(C)cc(C)c(C)c1C)=CC=CC(C)=CC(=O)O` had a melting point of 201 to 202 °C.

`Nc1cc(=O)[nH]c(=O)n1Cc1ccncc1` registered a melting point of 163 to 168 °C.

The compound `Cc1c(C)c(C=O)c2c(c1C)CC(C)(C)O2` had a melting point of 87 to 88 °C.

Compound `CCCC(CCC)NC(=O)c1ccc2oc(CCl)nc2c1` displayed a melting point of 108 to 109 °C.

For `O=C(NCC12CC3CC(CC(C3)C1)C2)c1cc(-c2ccc(F)cc2C(=O)O)ccc1Cl`, the melting point fell in the range of 126 to 128 °C.

For the compound `c1ccc(C2=Nc3ccccc3OC2)cc1`, the melting point is 108 to 111 °C.

The compound `COc1ccc([N+](=O)[O-])cc1CO` showed a melting point of 121 to 122 °C.

`O=c1ccccn1C(c1ccccc1)c1ccccc1` yielded a melting point of 142 to 145 °C.

`COc1ccc(P2(=O)c3ccccc3CN2c2ccccc2)cc1OC` (centres undefined): the melting point was 84 to 86 °C.

In turn, `COc1ccc2c(c1)c1c(n2CCCN(C)C)CCCSCC1` had a melting point of 79 to 80 °C.

`CC1(C)Oc2ccc3nc(C(N)=O)ccc3c2C(NCCc2ccccc2)C1O` (centres undefined) gave a melting point of 197 to 199 °C.

Take `O=C(O)CCc1cn(Cc2ccc(OCc3ccc(-c4ccccc4)nc3)cc2)cc1-c1ccccc1`: the melting point fell in the range of 185 to 186 °C.

For the compound `Nc1cc(Br)nc(Cl)c1OC(F)F`, the melting point is 138 to 140 °C.

In turn, `CNC(=S)C1=C(O)C(C)(C)Oc2ccc([N+](=O)[O-])cc21` gave a melting point of 148 to 149 °C.

`CCOC(=O)Cn1c(CC)nc2nc3cc(Cl)ccc3nc21` had a melting point of 174 to 175 °C.

The compound `CC(C)(C)C(=O)Nc1nc(Cl)c2c(n1)[nH]c1ccccc12` registered a melting point of 234 °C.

`CCCc1nc(S)nc(O)c1Cc1ccc(-c2ccccc2C#N)cc1` returned a melting point of 191 °C.

`CN1C(=O)CN=C(c2ccccc2F)c2cc(NC(=O)N3CC3)ccc21` yielded a melting point of 186 to 190 °C.

Regarding `O=C1NCCC[C@@H]1NS(=O)(=O)c1ccccc1C(F)(F)F`, the melting point is 161 to 163 °C.

Turning to `CCOC(=O)N(C)c1c(OC)cc(Cc2cnc(N)nc2N)cc1OC`, the melting point was in the range of 187 to 188 °C.

In turn, `CC(C)CCCc1c(-c2ccc(S(C)(=O)=O)cc2)cnn(-c2ccc(F)c(F)c2)c1=O` registered a melting point of 111 to 113 °C.

As to `O=C1OC(CN2CCC(O)(c3ccc(F)cc3)CC2)CN1c1ccccc1` (centres undefined), the melting point is 128 to 129 °C.

As to `CCCn1c(=O)c2c(NC)n(C(=O)OC)nc2n(Cc2cccc(Cl)c2)c1=O`, the melting point lay within 164 to 166 °C.

Compound `Cc1noc(-c2cc3c4ccccc4n(C)c3s2)n1` showed a melting point of 200 to 201 °C.

Consider `COc1cc(Nc2nccc(-c3ccc(NCCC4CCCN4C)nc3)n2)cc(OC)c1OC` (centres undefined), for which the melting point was 176 to 177 °C.

Compound `Cc1cc(C)c(C=NCc2ccc(Cl)nc2)c(C)c1` came in with a melting point of 47 to 48 °C.

Take `COc1ccc(N2CCN(c3c(C)c(C)c4c(c3C)C(CO)C(C)(C)O4)CC2)cc1` (centres undefined): the melting point fell in the range of 140 to 141 °C.

`CCCCCOC(=O)C1CC(Br)=NN1c1ncccc1Cl` (centres undefined) had a melting point of 39 to 42 °C.

Consider `NCCNC(=S)Nc1c(Cl)cc([N+](=O)[O-])cc1Cl`, for which the melting point amounted to 205 °C.

Turning to `Cc1ccc2cc(NS(=O)(=O)c3cccc(Cl)c3C)ccc2n1`, the melting point amounted to 178 °C.

`CC1(C)Oc2cc3nonc3cc2C(N2CC(O)CCC2=O)C1O` (centres undefined): the melting point lay in the range of 178 to 182 °C.

Compound `CC(=O)SC(CC(=O)c1cccc(C)c1)C(=O)O` (centres undefined) gave a melting point of 74 to 76 °C.

On to `O=C(c1sc(-c2nc3ccccc3[nH]2)nc1-c1ccco1)C1CCOCC1`, for which the melting point lay within 250 to 251 °C.

On to `CC(C)(C)OC(=O)Nc1ccc(C#Cc2ccc(F)cc2F)cc1[N+](=O)[O-]`, for which the melting point is 134 to 136 °C.

On to `CC(NC(=O)c1sc2ccc(C(F)(F)F)cc2c1O)=C(c1ccccc1)c1ccccc1`, for which the melting point lay within 155 to 160 °C.

In turn, `CC(C)c1ccc(-n2c(CC(=O)O)c(C(=O)O)c3cc(Oc4cccc(C(F)(F)F)c4)ccc32)cc1` registered a melting point of 185 to 190 °C.

In the case of `CCCCC(=NOCc1ccc(OCc2nc(-c3ccccc3)oc2C)cc1)C(=O)O`, the melting point lay in the range of 112 to 114 °C.

For `CCOC(=O)NC1(c2ccc(C(C)C)cc2OC)C(=O)c2ccccc2C1=O`, the melting point lay in the range of 149 to 150 °C.

Take `CCCc1[nH]nc2c1C(=O)c1c(NC(N)=O)cccc1-2`: the melting point lay in the range of 187 to 189 °C.

In the case of `c1ccc2c(c1)Cc1ccccc1N1CCCN=C21`, the melting point lay in the range of 139 to 141 °C.

The compound `Nc1ccc(C(=O)c2ccccc2)cc1CC(=O)O` registered a melting point of 143 to 145 °C.

With `CCCCn1sc2nc3ccccc3n2c1=O`, the melting point lay within 153 to 154 °C.

Take `OC(CCl)c1ccc(-c2ccc(SC(F)F)cc2)cc1` (centres undefined): the melting point fell in the range of 66 to 68 °C.

Take `C=CCn1c(-c2cccc(Cl)c2[N+](=O)[O-])nc2ccccc21`: the melting point lay in the range of 148 to 150 °C.

The compound `CCCCCS(=O)(=O)NC(=O)CCc1ccc(OCCOC)cc1OCC1CCCCC1` gave a melting point of 81 to 82 °C.

In turn, `O=C1CCn2c1ccc2C(=O)c1ccc(Cl)cc1` gave a melting point of 165 to 166 °C.

For the compound `O=C(O)CCCCCCC=Cc1cccs1`, the melting point is 45 to 46 °C.

`Nc1ccc2[nH]c3ccc([N+](=O)[O-])cc3c(=O)c2c1` came in with a melting point of more than 350 °C.

For `COc1ccc(-c2ccc(NC(=O)C=Cc3ccc(CN4CCCC4)cc3)cc2)cc1`, the melting point lay within 199 to 200 °C.
